Laboratory results: ChEMBL document CHEMBL5247597, “Enantioselective semisynthesis of novel cephalotaxine esters with potent antineoplastic activities against leukemia” (Eur J Med Chem, 2022)
Calls of active or inactive are those of the source. The calls are words filed in the database; no cut-off is given here.

Key:
K562 [1] = experiment: Antiproliferative activity against human K562 cells assessed as inhibition of cell growth measured after 72 hrs by CCK8 assay; type: functional, cell-based; details: K562, 72 h
U-937 = experiment: Antiproliferative activity against human U-937 cells assessed as inhibition of cell growth measured after 72 hrs by CCK8 assay; type: functional, cell-based; details: U-937, 72 h
HL-60 = experiment: Antiproliferative activity against human HL-60 cells assessed as inhibition of cell growth measured after 72 hrs by CCK8 assay; type: functional, cell-based; details: HL-60, 72 h
BaF3 = experiment: Antiproliferative activity against mouse BaF3 cells expressing Bcr/Abl-T315I mutant assessed as inhibition of cell growth measured after 72 hrs by CCK8 assay; type: functional, cell-based; details: BaF3, 72 h
MDA-MB-453 = experiment: Antiproliferative activity against human MDA-MB-453 cells assessed as inhibition of cell growth measured after 72 hrs by CCK8 assay; type: functional, cell-based; details: MDA-MB-453, 72 h
Huh-7 = experiment: Antiproliferative activity against human Huh-7 cells assessed as inhibition of cell growth measured after 72 hrs by CCK8 assay; type: functional, cell-based; details: Huh-7, 72 h
NCI-H1299 = experiment: Antiproliferative activity against human NCI-H1299 cells assessed as inhibition of cell growth measured after 72 hrs by CCK8 assay; type: functional, cell-based; details: NCI-H1299, 72 h
HCT-116 = experiment: Antiproliferative activity against human HCT-116 cells assessed as inhibition of cell growth measured after 72 hrs by CCK8 assay; type: functional, cell-based; details: HCT-116, 72 h
4T1 = experiment: Antiproliferative activity against mouse 4T1 cells assessed as inhibition of cell growth measured after 72 hrs by CCK8 assay; type: functional, cell-based; details: 4T1, 72 h
MV4-11 = experiment: Antiproliferative activity against human MV4-11 cells assessed as inhibition of cell growth measured after 72 hrs by CCK8 assay; type: functional, cell-based; details: MV4-11, 72 h
OCI-Ly3 = experiment: Antiproliferative activity against human OCILY3 cells assessed as inhibition of cell growth measured after 72 hrs by CCK8 assay; type: functional, cell-based; details: OCI-Ly3, 72 h
NCI-H1975 = experiment: Antiproliferative activity against human NCI-H1975 cells assessed as inhibition of cell growth measured after 72 hrs by CCK8 assay; type: functional, cell-based; details: NCI-H1975, 72 h
[2] = Cytotoxicity against human HL7702 cells assessed as inhibition of cell growth measured after 72 hrs by CCK8 assay; type: toxicity, cell-based; details: HL7702 (L02) cells
MOLT-4 = experiment: Antiproliferative activity against human MOLT-4 cells assessed as inhibition of cell growth measured after 72 hrs by CCK8 assay; type: functional, cell-based; details: MOLT-4, 72 h
NCI-H716 = experiment: Antiproliferative activity against human NCI-H716 cells assessed as inhibition of cell growth measured after 72 hrs by CCK8 assay; type: functional, cell-based; details: NCI-H716, 72 h
A204 = experiment: Antiproliferative activity against human A204 cells assessed as inhibition of cell growth measured after 72 hrs by CCK8 assay; type: functional, cell-based; details: A204, 72 h
K562 [3] = experiment: Downregulation of Mcl-1 expression in human K562 cells incubated for 24 hrs by Western blotting analysis; type: functional, cell-based; details: dose 11.1-900 nM
K562 [4] = experiment: Downregulation of HSP90 expression in human K562 cells at 11.1 to 900 nM incubated for 24 hrs by Western blotting analysis; type: functional, cell-based; details: dose 11.1-900 nM
K562 [5] = experiment: Downregulation of p38 expression in human K562 cells at 11.1 to 900 nM incubated for 24 hrs by Western blotting analysis; type: functional, cell-based; details: dose 11.1-900 nM
K562 [6] = experiment: Downregulation of Bcr-Abl expression in human K562 cells incubated for 24 hrs by Western blotting analysis; type: functional, cell-based; details: dose 11.1-900 nM
K562 [7] = experiment: Downregulation of Myc expression in human K562 cells incubated for 24 hrs by Western blotting analysis; type: functional, cell-based; details: dose 11.1-900 nM

| SMILES | IC50 (K562 [1]) | IC50 (U-937) | IC50 (HL-60) | further results |
| --- | --- | --- | --- | --- |
| CCOC(=O)C[C@H](Cc1ccc(O)cc1)C(=O)O[C@@H]1C(OC)=C[C@]23CCCN2CCc2cc4c(cc2[C@H]13)OCO4 | 0.572 µM | 0.834 µM | 0.576 µM |  |
| COC(=O)C[C@@H](Cc1ccccc1)C(=O)O[C@@H]1C(OC)=C[C@]23CCCN2CCc2cc4c(cc2[C@H]13)OCO4 | 0.404 µM | 0.725 µM | 0.548 µM |  |
| COC(=O)C[C@H](Cc1ccc(Br)cc1)C(=O)O[C@@H]1C(OC)=C[C@]23CCCN2CCc2cc4c(cc2[C@H]13)OCO4 | 0.553 µM | 0.929 µM | 0.701 µM |  |
| COC(=O)C[C@H](Cc1ccc(O)cc1)C(=O)O[C@@H]1C(OC)=C[C@]23CCCN2CCc2cc4c(cc2[C@H]13)OCO4 | 0.096 µM | 0.15 µM | 0.153 µM |  |
| COC1=C[C@]23CCCN2CCc2cc4c(cc2[C@@H]3[C@@H]1O)OCO4 [CEPHALOTAXINE] | > 30 µM | > 30 µM | > 30 µM |  |
| COC(=O)C[C@H](Cc1ccc(OC(C)=O)cc1)C(=O)O[C@@H]1C(OC)=C[C@]23CCCN2CCc2cc4c(cc2[C@H]13)OCO4 | 0.121 µM | 0.204 µM | 0.142 µM |  |
| COC(=O)C[C@](O)(CCCC(C)(C)O)C(=O)O[C@@H]1C(OC)=C[C@]23CCCN2CCc2cc4c(cc2[C@H]13)OCO4 [OMACETAXINE MEPESUCCINATE] | 0.014 µM | 0.012 µM | 0.013 µM | IC50 (BaF3): 0.081 µM; IC50 (MDA-MB-453): 0.021 µM; IC50 (Huh-7): 0.04 µM; IC50 (NCI-H1299): 0.022 µM; IC50 (HCT-116): 0.013 µM; IC50 (4T1): 0.06 µM; IC50 (MV4-11): 0.005 µM; IC50 (OCI-Ly3): 0.005 µM; IC50 (NCI-H1975): 0.022 µM; IC50 at 72 h [2]: 0.064 µM; IC50 (MOLT-4): 0.007 µM; IC50 (NCI-H716): 0.065 µM; IC50 (A204): 0.004 µM |
| COC(=O)C[C@@H](Cc1ccc(F)cc1)C(=O)O[C@@H]1C(OC)=C[C@]23CCCN2CCc2cc4c(cc2[C@H]13)OCO4 | 0.373 µM | 0.673 µM | 0.597 µM |  |
| Cc1ccc(NC(=O)c2ccc(CN3CCN(C)CC3)cc2)cc1Nc1nccc(-c2cccnc2)n1 [IMATINIB] | 0.135 µM | 16.6 µM | 28.5 µM |  |
| COC(=O)C[C@H](Cc1cccc(F)c1)C(=O)O[C@@H]1C(OC)=C[C@]23CCCN2CCc2cc4c(cc2[C@H]13)OCO4 | 0.123 µM | 0.174 µM | 0.122 µM |  |
| Cc1nc(Nc2ncc(C(=O)Nc3c(C)cccc3Cl)s2)cc(N2CCN(CCO)CC2)n1 [DASATINIB] | 0.001 µM | 15 µM | 15 µM |  |
| COC(=O)C[C@H](Cc1cccc(OCc2ccccc2)c1)C(=O)O[C@@H]1C(OC)=C[C@]23CCCN2CCc2cc4c(cc2[C@H]13)OCO4 | 0.152 µM | 0.248 µM | 0.202 µM |  |
| COC(=O)C[C@H](CCC(C)(C)C)C(=O)O[C@@H]1C(OC)=C[C@]23CCCN2CCc2cc4c(cc2[C@H]13)OCO4 | 0.368 µM | 1.22 µM | 0.907 µM |  |
| COC(=O)C[C@H](Cc1ccc(N)cc1)C(=O)O[C@@H]1C(OC)=C[C@]23CCCN2CCc2cc4c(cc2[C@H]13)OCO4 | 0.112 µM | 0.121 µM | 0.13 µM | Activity (K562 [3]): Dose-Dependent Effect; Activity (K562 [4]): inactive; IC50 (BaF3): 0.246 µM; IC50 (MDA-MB-453): 0.07 µM; IC50 (Huh-7): 0.216 µM; IC50 (NCI-H1299): 0.173 µM; IC50 (HCT-116): 0.107 µM; IC50 (4T1): 0.296 µM; Activity (K562 [5]): inactive; IC50 (MV4-11): 0.098 µM; IC50 (OCI-Ly3): 0.058 µM; IC50 (NCI-H1975): 11.9 µM; IC50 at 72 h [2]: 0.494 µM; IC50 (MOLT-4): 0.06 µM; IC50 (NCI-H716): 0.107 µM; IC50 (A204): 0.038 µM; Activity (K562 [6]): Dose-Dependent Effect; Activity (K562 [7]): Dose-Dependent Effect |
| COC(=O)C[C@H](Cc1cccc(O)c1)C(=O)O[C@@H]1C(OC)=C[C@]23CCCN2CCc2cc4c(cc2[C@H]13)OCO4 | 0.139 µM | 0.176 µM | 0.184 µM |  |
| COC(=O)C[C@H](Cc1ccc(OCc2ccccc2)cc1)C(=O)O[C@@H]1C(OC)=C[C@]23CCCN2CCc2cc4c(cc2[C@H]13)OCO4 | 0.103 µM | 0.174 µM | 0.151 µM |  |
| COC(=O)C[C@H](Cc1cccc(N)c1)C(=O)O[C@@H]1C(OC)=C[C@]23CCCN2CCc2cc4c(cc2[C@H]13)OCO4 | 0.121 µM | 0.213 µM | 0.145 µM |  |
| COC(=O)C[C@H](Cc1ccccc1Br)C(=O)O[C@@H]1C(OC)=C[C@]23CCCN2CCc2cc4c(cc2[C@H]13)OCO4 | 0.464 µM | 0.7 µM | 0.535 µM |  |
| COC(=O)C[C@H](Cc1ccccc1OCc1ccccc1)C(=O)O[C@@H]1C(OC)=C[C@]23CCCN2CCc2cc4c(cc2[C@H]13)OCO4 | 0.482 µM | 0.725 µM | 0.569 µM |  |
| COC(=O)C[C@H](Cc1cccc(NC(=O)OC(C)(C)C)c1)C(=O)O[C@@H]1C(OC)=C[C@]23CCCN2CCc2cc4c(cc2[C@H]13)OCO4 | 0.163 µM | 0.257 µM | 0.199 µM |  |
| COC(=O)C[C@H](Cc1ccccc1O)C(=O)O[C@@H]1C(OC)=C[C@]23CCCN2CCc2cc4c(cc2[C@H]13)OCO4 | 0.681 µM | 0.807 µM | 0.718 µM |  |
| CCOC(=O)C[C@H](Cc1ccc(OCc2ccccc2)cc1)C(=O)O[C@@H]1C(OC)=C[C@]23CCCN2CCc2cc4c(cc2[C@H]13)OCO4 | 0.693 µM | 1.05 µM | 0.89 µM |  |
| COC(=O)C[C@H](Cc1cccc(Br)c1)C(=O)O[C@@H]1C(OC)=C[C@]23CCCN2CCc2cc4c(cc2[C@H]13)OCO4 | 0.203 µM | 0.214 µM | 0.235 µM |  |
| COC(=O)C[C@H](Cc1ccc(NC(=O)OC(C)(C)C)cc1)C(=O)O[C@@H]1C(OC)=C[C@]23CCCN2CCc2cc4c(cc2[C@H]13)OCO4 | 0.149 µM | 0.13 µM | 0.155 µM |  |
| COC(=O)C[C@H](C)C(=O)O[C@@H]1C(OC)=C[C@]23CCCN2CCc2cc4c(cc2[C@H]13)OCO4 | 14.5 µM | 13.8 µM | 18 µM |  |
| COC(=O)C[C@H](Cc1ccc2ccccc2c1)C(=O)O[C@@H]1C(OC)=C[C@]23CCCN2CCc2cc4c(cc2[C@H]13)OCO4 | 0.344 µM | 0.441 µM | 0.396 µM |  |
| COC(=O)C[C@H](Cc1ccc(F)cc1)C(=O)O[C@@H]1C(OC)=C[C@]23CCCN2CCc2cc4c(cc2[C@H]13)OCO4 | 0.207 µM | 0.288 µM | 0.266 µM |  |
| COC(=O)C[C@@H](Cc1cccs1)C(=O)O[C@@H]1C(OC)=C[C@]23CCCN2CCc2cc4c(cc2[C@H]13)OCO4 | 0.186 µM | 0.277 µM | 0.246 µM |  |
| COC(=O)C[C@H](Cc1ccccc1)C(=O)O[C@@H]1C(OC)=C[C@]23CCCN2CCc2cc4c(cc2[C@H]13)OCO4 | 0.096 µM | 0.17 µM | 0.155 µM |  |
